Test results from PubChem BioAssay (NCI).
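Each compound was tested at five concentrations against cells in 96-well plates for 48 hours. At the GI50, growth is halved. The concentration for full growth arrest is given as TGI.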

Tests used:
Test in all cases: NCI-60 cell line screen, 48 h
ACHN renal = system: ACHN renal
BT-549 breast = system: BT-549 breast
CAKI-1 renal = system: CAKI-1 renal
HS 578T breast = system: HS 578T breast
OVCAR-5 ovarian = system: OVCAR-5 ovarian
RPMI-8226 leukemia = system: RPMI-8226 leukemia
SF-268 CNS = system: SF-268 CNS
SK-MEL-5 melanoma = system: SK-MEL-5 melanoma

Row | Compound | TGI (ACHN renal) [µM] | TGI (BT-549 breast) [µM] | TGI (CAKI-1 renal) [µM] | TGI (HS 578T breast) [µM] | TGI (OVCAR-5 ovarian) [µM] | TGI (RPMI-8226 leukemia) [µM] | TGI (SF-268 CNS) [µM] | TGI (SK-MEL-5 melanoma) [µM] | GI50 (ACHN renal) [nM] | GI50 (CAKI-1 renal) [nM] | GI50 (OVCAR-5 ovarian) [µM] | GI50 (RPMI-8226 leukemia) [nM] | GI50 (SK-MEL-5 melanoma) [nM] | GI50 (BT-549 breast) [µM] | GI50 (HS 578T breast) [nM] | GI50 (SF-268 CNS) [µM]
1 | COc1cc2c(c3oc4c(O)cccc4c(=O)c13)CC(C(C)(O)CCl)O2 (centres undefined) | 1.87 | 12.5 | 7.68 | 6.89 | 34 | 0.655 | 3.33 | 1.5 | – | – | – | – | – | – | – | –
2 | Cc1ccc2nc(CN(CCN(Cc3nc4ccc(C)cc4[nH]3)Cc3nc4ccc(C)cc4[nH]3)Cc3nc4ccc(C)cc4[nH]3)[nH]c2c1 | 2.94 | – | 2.51 | – | 3 | 2.95 | – | 3.06 | 1600 | 1260 | 1.63 | 1300 | 1690 | – | – | –
3 | C=C(CN1CCN(c2cc(C(F)(F)F)cc(C(F)(F)F)c2)CC1)c1ccc(C(=O)Nc2ccccc2N)cc1 | > 100 | 24.6 | 42.3 | 35.6 | > 100 | 4.22 | > 100 | 10.8 | 5810 | 2810 | 54.6 | 1650 | 2280 | 5.04 | 4810 | 8.12
4 | CSc1ccc(-c2cn3ccsc3n2)cc1 | > 100 | > 100 | > 100 | > 65.7 | > 100 | > 100 | > 100 | 98.1 | 5840 | 24900 | 38.9 | 9200 | 14300 | > 60.5 | 9500 | 7.54
5 | CCc1ccc([OH2+])c(C(=O)[O-])c1.CCc1ccc([OH2+])c(C(=O)[O-])c1.CCc1ccc([OH2+])c(C(=O)[O-])c1.CCc1ccc([OH2+])c(C(=O)[O-])c1.[Cu+2].[Cu+2] | > 100 | > 100 | > 82.4 | > 100 | 70.2 | > 100 | > 100 | 42.9 | > 100000 | 24900 | 32.3 | 41300 | 17600 | 78.6 | > 100000 | > 100
6 | COc1ccccc1NC(=O)c1sc2ncn(CCOc3ccccc3)c(=O)c2c1C | > 50 | > 50 | > 50 | 4.1 | > 50 | > 50 | > 50 | 4.2 | 6010 | 2420 | 39.2 | 9200 | 1150 | 26.7 | 1370 | 3.2
7 | CC1=C(C(=S)Nc2ccc(Cl)c(C(=O)OC(C)C)c2)SCCO1 | 85.9 | 37.8 | 48.5 | 75.1 | > 100 | 63.9 | 60.8 | 30.8 | – | – | – | – | – | – | – | –
8 | CC/C(=C/c1ccc(OC)cc1)[N+](=O)[O-] | 3.21 | 6.42 | 3.33 | 22.2 | 6.08 | 5.31 | 10.4 | 3.56 | 1710 | 1670 | 2.34 | 1760 | 1870 | 2.42 | 3840 | 3.01
9 | CNC(=O)c1sc(-n2cnc3cc(OC)c(OC)cc32)cc1OCc1ccccc1C(F)(F)F | > 25 | > 25 | > 25 | > 25 | > 25 | > 25 | > 25 | > 25 | > 25000 | > 25000 | > 25 | > 25000 | > 25000 | > 25 | > 25000 | > 25
10 | CN(N=O)c1ccc(/C=C/c2ccnc3ccccc23)cc1 | > 100 | > 100 | > 100 | > 100 | > 100 | – | > 100 | > 100 | – | – | – | – | – | – | – | –
11 | COc1cccc(/C=C\C(=O)c2ccccc2)c1 | 23.4 | 24.3 | 24.8 | 27.7 | 41.2 | > 100 | 28.9 | 24.8 | 7340 | 9660 | 9.84 | 16200 | 9400 | 10.8 | 4150 | 5.96
12 | O=C(CC1(O)C(=O)Nc2ccc(Cl)cc21)c1ccc(C(=O)NCC2CCC3(CC2)OOC2(CCCCC2)OO3)cc1 (centres undefined) | – | 16.1 | 3.27 | > 28.2 | 30.9 | 4.72 | 12.9 | 3.4 | – | 1620 | 4.21 | 1730 | 1750 | 3.01 | 3440 | 2.94
13 | CC(C)(C)n1cc(-c2ccnc(NCCCNS(=O)(=O)c3cccc4ccccc34)c2)c(-c2cccc(O)c2)n1 | 7.25 | – | 7.04 | 4.8 | 4.06 | – | 8.02 | 2.85 | 2700 | 2490 | 1.98 | – | 1510 | – | 1890 | 2.77
14 | NP1(Oc2ccc(F)cc2)=NP(N)(Oc2ccc(F)cc2)=NP(Oc2ccc(F)cc2)(Oc2ccc(F)cc2)=N1 (centres undefined) | 12.1 | 7.44 | 21.8 | 17.7 | 23.7 | 18.3 | 26.7 | 17.8 | – | – | – | – | – | – | – | –
15 | Cc1cnc(C(=O)Nc2nc3ccc(S(=O)(=O)Nc4ccc(C(C)(C)C)cc4)cc3[nH]2)cn1 | 14.2 | 13.6 | 16.4 | 10.6 | 10.7 | 12.4 | 13.6 | 7.09 | 518 | 544 | 1.41 | 470 | 330 | 1.12 | 422 | 0.759
16 | NS(=O)(=O)c1cccc(Nc2cc(-c3ccc(F)cc3)[nH]n2)c1 | > 25 | > 25 | > 25 | > 25 | > 25 | > 25 | > 25 | > 25 | 13200 | 12400 | > 25 | > 25000 | 24500 | > 23.9 | > 20800 | 18.6

Row | Compound | TGI (ACHN renal) [µM] | TGI (BT-549 breast) [µM] | TGI (CAKI-1 renal) [µM] | TGI (HS 578T breast) [µM] | TGI (OVCAR-5 ovarian) [µM] | TGI (RPMI-8226 leukemia) [µM] | TGI (SF-268 CNS) [µM] | TGI (SK-MEL-5 melanoma) [µM] | GI50 (ACHN renal) [nM] | GI50 (CAKI-1 renal) [nM] | GI50 (OVCAR-5 ovarian) [µM] | GI50 (RPMI-8226 leukemia) [nM] | GI50 (SK-MEL-5 melanoma) [nM] | GI50 (BT-549 breast) [µM] | GI50 (HS 578T breast) [nM] | GI50 (SF-268 CNS) [µM]
17 | COc1cc([C@H]2OC[C@@H]3C(c4cc(OC)c5c(c4)OCO5)OC[C@H]23)cc(OC)c1OC (some centres undefined) | > 100 | > 100 | > 100 | > 100 | > 100 | > 100 | > 100 | 44.9 | – | – | – | – | – | – | – | –
18 | COc1ccc(/C(=C(\c2ccccc2)[N+](=O)[O-])c2ccc(OCCN3CCCC3)cc2)cc1 | 18.6 | 17.6 | 9.87 | 10.9 | 22.9 | 10.6 | 20 | 2.92 | 6320 | 2680 | 8.75 | 2530 | 1540 | 4.51 | 2320 | 5.99
19 | Nc1nc(SCC#CCCl)c2[nH]cnc2n1 | 15 | – | 10.6 | 56.6 | 17.7 | 48.8 | 18.6 | 12.6 | 3700 | 2830 | 4.58 | 6860 | 3110 | – | 3890 | 3.93
20 | COc1cc(OC)c(/C=C/S(=O)(=O)Cc2ccc(OC)c(N)n2)c(OC)c1 | > 100 | > 100 | > 100 | > 100 | > 100 | > 85.9 | > 100 | 0.0116 | < 10 | < 10 | < 0.0256 | < 17.2 | < 10 | < 0.01 | < 10 | < 0.01
21 | O=C(O)CN(CCN(CC(=O)O)CC(=O)O)CC(=O)O.[Cu+2].[Na+] | > 100 | > 100 | > 100 | > 100 | > 100 | > 100 | > 100 | > 100 | > 100000 | > 100000 | > 100 | > 100000 | > 100000 | > 100 | > 100000 | > 100
22 | O=C(/C=C/c1ccco1)Nc1ncc(Cc2cc(Cl)ccc2Cl)s1 | > 100 | – | > 100 | > 100 | > 100 | > 100 | > 100 | > 64.8 | 66.4 | 50 | 0.257 | 63.4 | 44.1 | 0.189 | 42.7 | 0.102
23 | CC1=C(\C=C/C(C)=C/C=C/C(C)=C/C=C/C=C(C)\C=C\C=C(C)/C=C/C2=C(C)CCCC2(C)C)C(C)(C)CCC1 | > 100 | > 100 | – | > 100 | > 100 | – | > 100 | > 100 | – | – | – | – | – | – | – | –
24 | COC(=O)[C@]12CC[C@@H](C)[C@H](C)[C@@H]1C1=CC[C@@H]3[C@@]4(C)C[C@@H](OC(C)=O)[C@H](OC(C)=O)[C@@](C)(COC(C)=O)[C@@H]4[C@H](O)C[C@@]3(C)[C@]1(C)CC2 | > 100 | 81.4 | > 100 | > 100 | > 100 | > 100 | > 100 | 1.72 | 2710 | 930 | 7.04 | 1040 | 367 | 1.4 | 8150 | 2.62
25 | CC1CCc2c(C(=O)Nc3ncc(Cc4cccc([N+](=O)[O-])c4)s3)csc2C1 (centres undefined) | > 100 | > 100 | > 100 | > 26.2 | > 100 | > 100 | > 100 | > 100 | 937 | 431 | 1.56 | 1140 | 476 | 1.25 | 720 | 1.53
26 | O=C(O)CCCCCNCc1cc2cc3c(cc2c2cc(OCc4ccccc4)ccc12)OCO3 | 13.2 | 24.1 | 12 | – | 5.23 | – | – | 3.3 | 3480 | 3170 | 2.33 | – | 1650 | 6.68 | – | –
27 | C=C(C)[C@@H]1CC[C@]2(C(=O)O)CC[C@]3(C)[C@H](CC[C@@H]4[C@@]5(C)CCC(N)C(C)(C)[C@@H]5CC[C@]43C)[C@@H]12 (some centres undefined) | 5.32 | – | – | 5.38 | – | 5.21 | – | – | 2200 | – | – | 2040 | – | – | 2480 | –
28 | COc1cc(C(=O)/C=C/c2c[nH]c3ccccc23)cc(OC)c1OC | 16.7 | 4.16 | 29.8 | 30.4 | > 100 | 2.82 | 26.3 | 0.775 | 50.9 | < 19.3 | 0.0728 | 31.9 | < 17.3 | 0.0288 | 20.8 | 0.0735
29 | N#Cc1ccc2c(-c3ccnc(NC4CC4)n3)c(-c3ccc(F)cc3)nn2c1 | > 25 | > 25 | > 25 | > 25 | > 25 | > 25 | > 25 | > 25 | > 25000 | 14600 | > 25 | > 25000 | > 25000 | > 25 | > 25000 | > 25
30 | COc1cc(/C=N/NC(=O)c2cnn3c2NC(c2ccccc2)C3)ccc1OCc1ccccc1 (centres undefined) | 6.99 | 4.85 | 3.99 | 3.3 | 10.6 | 23.6 | 16.7 | 2.8 | 903 | 597 | 2.11 | 955 | 663 | 0.571 | 908 | 2.42
31 | CO[C@H]1C[C@H](O[C@H]2CC[C@@]3(C)[C@H](CC[C@@H]4[C@@H]3CC[C@]3(C)[C@@H](C5=CC(=O)OC5)CC[C@]43O)C2)O[C@H](C)[C@H]1O | 0.0101 | 0.0175 | 0.0284 | – | 0.0896 | 0.0427 | 0.0188 | 0.0469 | – | – | – | – | – | – | – | –
32 | COc1ccc([C@@H]2[C@@H](Cl)C(=O)N2c2cc(OC)c(OC)c(OC)c2)cc1C | 30.3 | 1.13 | – | 77.4 | > 100 | 28.3 | 25 | 1.34 | 121 | – | 0.305 | 64.1 | 55.3 | 0.0717 | 49 | 0.137
